# Experimental data as given in patent publication US10561638B2, “Methods for treating dependence” (Biotie Therapies, Inc., priority 2007, dated 2020).
# Entries after “also recorded” stand apart in the source; their conditions may differ.
# Legend:
# [1] = system: blood pressure responses to norepinephrine, isoproterenol and acetylcholine; assay: Responses to autonomic agents in anesthetized, instrumented dogs; type: in vivo, beagle dogs; conditions: single intraduodenal dose of 60 mg/kg
# Procedure: Beagle dogs were administered single intraduodenal doses of 0 (vehicle) or 60 mg/kg of nepicastat through an intraduodenal cannula. The vehicle-control group consisted of 1 male and 1 female, and the nepicastat-treatment group consisted of 2 males and 2 females. Each animal was surgically instrumented while anesthetized with isoflurane gas. Before dosing with test formulation, the average blood pressure responses to intravenous doses of autonomic agents, norepinephrine (3 μg/kg), isoproterenol (0.3 μg/kg), and acetylcholine (10 μg/kg), were evaluated. A single bolus dose of test formulation was then administered to each animal and the blood pressure responses to the autonomic agents were evaluated approximately 1, 2, and 3 hours after dosing. At the completion of the experiment, each dog was euthanatized and removed from the study. […]
# Systolic, diastolic, and mean aortic blood pressures were evaluated just before administration (baseline) and at the time of peak response to each agent (maximum change from baseline). Systolic, diastolic, and mean aortic blood pressures, and blood pH, PCO2, and PO2 were evaluated before dosing and approximately 50, 110, and 170 minutes after dosing with test formulation. […]
# [2] = system: pithed SHRs; assay: Pressor response to pre-ganglionic nerve stimulation in pithed SHRs; type: in vivo, spontaneously hypertensive rats
# Procedure: The in vivo hemodynamic activity of nepicastat was further assessed in conscious, restrained SHRs, a model having high sympathetic drive to cardiovascular tissues. Hemodynamic study in SHRs. Male SHRs (15-16 week old) were used in the study. The animals were lightly anesthetized with ether and the left femoral artery and vein were catheterized for measurement of blood pressure and drug administration, respectively. The animals were placed in restrainers and allowed to recover for 30-40 min. After obtaining baseline measurements, the animals were treated, orally, with either vehicle or the appropriate dose of nepicastat and hemodynamic parameters were continuously recorded for 4 h. The animals were then anesthetized with pentobarbital, placed on a heating pad (37° C.) and ventilated with a Harvard rodent ventilator. After administration of atropine (1 mg/kg, iv) and tubocurarine (1 mg/kg, iv), the animals were pithed through the orbit of the eye with a stainless steel rod. The […] rod was stimulated electrically with 1 ms pulses of 80V at different frequencies (0.15, 0.45, 1.5, 5, 15 Hz) to obtain frequency-pressor response curves. […] The response was slow in onset, reaching its plateau in 3-4 h. […] Following this study, the rats were pithed and the effects of nepicastat on the pressor response to pre-ganglionic nerve stimulation (PNS) of the spinal cord were evaluated 5 h after dosing.
# [3] = system: plasma renin activity; assay: Plasma renin activity in SHRs; type: in vivo, spontaneously hypertensive rats; conditions: 30 and 100 mg/kg/d p.o. for 5 days
# Text: The potency relationships in the left ventricle and mesenteric artery resulting from these in vivo studies strongly parallel those obtained from in vitro studies using purified DBH (see above). […] It was therefore of interest to assess whether decreasing norepinephrine levels with nepicastat would result in a decrease in plasma renin activity.
# [4] = in vivo
# Procedure: The pharmacokinetics of nepicastat after a single 40 mg dose was compared in men and women.
# [5] = system: conscious, restrained SHRs; assay: Hemodynamic study in conscious, restrained SHRs; type: in vivo, spontaneously hypertensive rats
# Procedure: The in vivo hemodynamic activity of nepicastat was further assessed in conscious, restrained SHRs, a model having high sympathetic drive to cardiovascular tissues. Hemodynamic study in SHRs. Male SHRs (15-16 week old) were used in the study. The animals were lightly anesthetized with ether and the left femoral artery and vein were catheterized for measurement of blood pressure and drug administration, respectively. The animals were placed in restrainers and allowed to recover for 30-40 min. After obtaining baseline measurements, the animals were treated, orally, with either vehicle or the appropriate dose of nepicastat and hemodynamic parameters were continuously recorded for 4 h. The animals were then anesthetized with pentobarbital, placed on a heating pad (37° C.) and ventilated with a Harvard rodent ventilator. After administration of atropine (1 mg/kg, iv) and tubocurarine (1 mg/kg, iv), the animals were pithed through the orbit of the eye with a stainless steel rod. The […] rod was stimulated electrically with 1 ms pulses of 80V at different frequencies (0.15, 0.45, 1.5, 5, 15 Hz) to obtain frequency-pressor response curves. […] The animals were placed in restrainers and allowed to recover for 30-40 minutes. After obtaining baseline measurements, the animals were treated, orally, with either vehicle or the appropriate dose of nepicastat and hemodynamic parameters were continuously recorded for 4 h.
smiles,measurement,setting,value
"Cl.NCc1c[nH]c(=S)n1[C@H]1CCc2c(F)cc(F)cc2C1 [nepicastat, (S)-5-Aminomethyl-1-(5,7-difluoro-1,2,3,4-tetrahydronaphth-2-yl)-2,3-dihydro-2-thioxo-1H-imidazole hydrochloride]",predose vs postdose blood pressure responses to autonomic agents,[1],No treatment-related differences
same,hypertensive and tachycardic responses to preganglionic nerve stimulation,"[2]; 3 mg/kg p.o., 5 hours after dosing",significantly attenuated the hypertensive and tachycardic responses
same,heart rate response to PNS,[2]; 5 h after dosing,not significantly affected
same,maximum shift in the frequency-pressor response curve,[2]; 5 h after dosing,~5 fold
same,plasma renin activity,[3],did not alter plasma renin activity
same,"AUC, greater in women than in men","[4]; both, human, 40 mg",approximately 43%
same,"Cmax, greater in women than in men","[4]; both, human, 40 mg",approximately 23%
same,Tmax for the radioactivity in plasma,[4]; human,1 to 2 h
same,terminal T1/2 for total radioactivity in plasma,[4]; human,~100 h
same,"Cmax or AUC, fast vs slow acetylator phenotype",[4],No significant differences
same,"T½, women vs men",[4],longer in women than in men
same,accumulation with multiple dosing,[4],no significant accumulation
same,decrease in heart rate,[5]; 10 mg/kg,9.8%
same,maximal decrease in mean blood pressure,[5]; 10 mg/kg po,53±4 mmHg
same,reduction in mean blood pressure relative to vehicle control,[5]; 10 mg/kg po,33%
same,decrease in blood pressure 4 hours after dosing,"[5]; 10 mg/kg, SHRs",−46 mmHg
same,decrease in heart rate,[5]; 30 mg/kg,10.5%
same,effect on mean arterial pressure,"[5]; 0.3-30 mg/kg po, up to 4 h, hydrochloride",significant (p<0.05) lowering of mean arterial pressure; also recorded: significant antihypertensive effect
same,effect on heart rate,[5]; 10 and 30 mg/kg po,significantly reduced heart rate
same,duration of antihypertensive effects,[5]; acute oral administration,> 4 h
same,time to plateau of the antihypertensive response,[5]; po,3 to 4 h
